Read-outs that look alike come from different tables or passages of the source.
Legend:
Assay in all cases: Test B pre-/postemergence plant response
Type in all cases: in vivo
[1] = system: common (oilseed) sunflower (Helianthus annuus); settings: Preemergence; for Sunflower plant response rating: scale 0 to 100
Procedure, shortened: (§1)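 Seeds were sown and sprayed preemergence, while plants at 2 to 18 cm (1- to 4-leaf stage) got postemergence sprays. Compounds were formulated in a non-phytotoxic solvent mixture with surfactant. After 13 to 15 days in a greenhouse, injury was rated visually against untreated controls, 0 (no effect) to 100 (complete control).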

[2] = system: Italian ryegrass (Lolium multiflorum); settings: for pest or weed control at 31 g/ha / pest or weed control at 62 g/ha: Lolium multiflorum, read-out: Plant response rating, Ryegrass, Italian; for pest or weed control at 31 g/ha: 31 g ai/ha; for pest or weed control at 62 g/ha: 62 g ai/ha, 100 complete control
Procedure, shortened: as §1

[3] = system: woolly cupgrass (Eriochloa villosa); settings: for pest or weed control at 31 g/ha: 31 g ai/ha; for pest or weed control at 62 g/ha: 62 g ai/ha, 100 complete control
Procedure, shortened: as §1

[4] = system: pigweed (Amaranthus retroflexus); settings: for pest or weed control at 31 g/ha / pest or weed control at 62 g/ha: Amaranthus retroflexus, read-out: Plant response rating, Pigweed; for pest or weed control at 31 g/ha: 31 g ai/ha; for pest or weed control at 62 g/ha: 62 g ai/ha, 100 complete control
Procedure, shortened: as §1

[5] = system: goosegrass (Eleusine indica); settings: for pest or weed control at 31 g/ha / pest or weed control at 62 g/ha: Eleusine indica, read-out: Plant response rating, Goosegrass; for pest or weed control at 31 g/ha: 31 g ai/ha; for pest or weed control at 62 g/ha: 62 g ai/ha, 100 complete control
Procedure, shortened: as §1

[6] = system: Russian thistle (Salsola iberica); settings: Preemergence; for Russian Thistle plant response rating: scale 0 to 100
Procedure, shortened: as §1

[7] = system: common ragweed (Ambrosia elation); settings: for pest or weed control at 31 g/ha / pest or weed control at 62 g/ha: Ambrosia, read-out: Plant response rating, Ragweed; for pest or weed control at 31 g/ha: 31 g ai/ha; for pest or weed control at 62 g/ha: 62 g ai/ha, 100 complete control
Procedure, shortened: as §1

[8] = system: cocklebur (Xanthium strumarium); settings: for pest or weed control at 31 g/ha: 31 g ai/ha; for pest or weed control at 62 g/ha: 62 g ai/ha, 100 complete control
Procedure, shortened: as §1

[9] = system: large crabgrass (Digitaria sanguinalis); settings: for pest or weed control at 31 g/ha: 31 g ai/ha; for pest or weed control at 62 g/ha: 62 g ai/ha, 100 complete control
Procedure, shortened: as §1

[10] = system: catchweed bedstraw (Galium aparine); settings: Preemergence; for Galium plant response rating: scale 0 to 100
Procedure, shortened: as §1

[11] = system: downy bromegrass (Bromus tectorum); settings: for pest or weed control at 31 g/ha: 31 g ai/ha; for pest or weed control at 62 g/ha: 62 g ai/ha, 100 complete control
Procedure, shortened: as §1

[12] = system: kochia (Kochia scoparia); settings: for Kochia plant response rating: postemergence, 0-100 scale; for Plant response rating, Kochia: Postemergence
Procedure, shortened: as §1

[13] = system: soybean (Glycine max); settings: for plant injury at 31 g/ha / plant injury at 62 g/ha: Glycine max, read-out: Plant response rating, Soybean; for plant injury at 31 g/ha: 31 g ai/ha; for plant injury at 62 g/ha: 62 g ai/ha, 100 complete control
Procedure, shortened: as §1

[14] = system: surinam grass (Brachiaria decumbens); settings: for pest or weed control at 31 g/ha / pest or weed control at 62 g/ha: Urochloa decumbens, read-out: Plant response rating, Surinam Grass; for pest or weed control at 31 g/ha: 31 g ai/ha; for pest or weed control at 62 g/ha: 62 g ai/ha, 100 complete control
Procedure, shortened: as §1

[15] = 8 g ai/ha, postemergence, 0-100 scale
[16] = 16 g ai/ha, postemergence, 0-100 scale
[17] = post-emergence, Postemergence, scale 0 to 100
[18] = post-emergence, Postemergence, scale 0 to 100, 0 no effect
[19] = pre-emergence, Preemergence, scale 0 to 100 (0 no effect, 100 complete control)
[20] = pre-emergence, Preemergence, 0 to 100 scale, 0 no effect
[21] = Preemergence, 8 g ai/ha, scale 0 to 100
[22] = Preemergence, 16 g ai/ha, scale 0 to 100

Cc1nn(C)c(=O)c(-n2nc(-c3ccc(C(F)(F)F)cc3)cc2C)c1O [Compound 75, 5-hydroxy-2,6-dimethyl-4-[5-methyl-3-[4-(trifluoromethyl)phenyl]-1H-pyrazol-1-yl]-3(2H)-pyridazinone]
20: Cupgrass, Woolly plant response rating [3, 15] | Bromegrass, Downy plant response rating [11, 22]
50: Ryegrass, Italian plant response rating [2, 16] | Goosegrass plant response rating [5, 16] | Goosegrass plant response rating [5, 21] | Surinam Grass plant response rating [14, 22]
0%: pest or weed control at 31 g/ha ([1]; Helianthus annuus, pre-emergence, 31 g ai/ha, scale 0 to 100 (0 no effect, 100 complete control), read-out: Plant response rating, Sunflower) | pest or weed control at 62 g/ha ([1]; Helianthus annuus, pre-emergence, 62 g ai/ha, 0 to 100 scale, 0 no effect, 100 complete control, read-out: Plant response rating, Sunflower) | pest or weed control at 31 g/ha [4, 17] | pest or weed control at 62 g/ha [4, 18] | pest or weed control at 31 g/ha [4, 19] | pest or weed control at 62 g/ha [4, 20] | pest or weed control at 31 g/ha [7, 17] | pest or weed control at 62 g/ha [7, 18] | pest or weed control at 31 g/ha [7, 19] | pest or weed control at 62 g/ha [7, 20] | pest or weed control at 16 g/ha ([8]; Xanthium strumarium, post-emergence, Postemergence, 16 g ai/ha, scale 0 to 100, read-out: Plant response rating, Cocklebur) | pest or weed control at 31 g/ha ([8]; Xanthium strumarium, post-emergence, Postemergence, scale 0 to 100, read-out: Plant response rating, Cocklebur) | pest or weed control at 62 g/ha ([8]; Xanthium strumarium, post-emergence, Postemergence, scale 0 to 100, 0 no effect, read-out: Plant response rating, Cocklebur) | pest or weed control at 31 g/ha ([8]; Xanthium strumarium, pre-emergence, Preemergence, scale 0 to 100 (0 no effect, 100 complete control), read-out: Plant response rating, Cocklebur) | pest or weed control at 62 g/ha ([8]; Xanthium strumarium, pre-emergence, Preemergence, 0 to 100 scale, 0 no effect, read-out: Plant response rating, Cocklebur) | pest or weed control at 16 g/ha ([9]; Digitaria sanguinalis, post-emergence, Postemergence, 16 g ai/ha, scale 0 to 100, read-out: Plant response rating, Crabgrass, Large) | pest or weed control at 31 g/ha ([10]; Galium aparine, pre-emergence, 31 g ai/ha, scale 0 to 100 (0 no effect, 100 complete control), read-out: Plant response rating, Galium) | pest or weed control at 62 g/ha ([10]; Galium aparine, pre-emergence, 62 g ai/ha, 0 to 100 scale, 0 no effect, 100 complete control, read-out: Plant response rating, Galium) | plant injury at 31 g/ha [13, 17] | plant injury at 62 g/ha [13, 18] | plant injury at 31 g/ha [13, 19] | plant injury at 62 g/ha [13, 20]
0: Sunflower plant response rating ([1]; 8 g ai/ha) | Sunflower plant response rating ([1]; 16 g ai/ha) | Ryegrass, Italian plant response rating [2, 21] | Cupgrass, Woolly plant response rating [3, 21] | Cupgrass, Woolly plant response rating [3, 22] | Pigweed plant response rating [4, 15] | Pigweed plant response rating [4, 16] | Pigweed plant response rating [4, 21] | Pigweed plant response rating [4, 22] | Plant response rating, Russian Thistle ([6]; 31 g ai/ha, scale 0 to 100 (0 no effect, 100 complete control)) | Plant response rating, Russian Thistle ([6]; 62 g ai/ha, 0 to 100 scale, 0 no effect, 100 complete control) | Russian Thistle plant response rating ([6]; 8 g ai/ha) | Russian Thistle plant response rating ([6]; 16 g ai/ha) | Ragweed plant response rating [7, 15] | Ragweed plant response rating [7, 16] | Ragweed plant response rating [7, 21] | Ragweed plant response rating [7, 22] | Cocklebur plant response rating [8, 15] | Cocklebur plant response rating [8, 21] | Cocklebur plant response rating [8, 22] | Crabgrass, Large plant response rating [9, 15] | Crabgrass, Large plant response rating [9, 21] | Crabgrass, Large plant response rating [9, 22] | Galium plant response rating ([10]; 8 g ai/ha) | Galium plant response rating ([10]; 16 g ai/ha) | Bromegrass, Downy plant response rating [11, 15] | Bromegrass, Downy plant response rating [11, 21] | Kochia plant response rating ([12]; 8 g ai/ha) | Kochia plant response rating ([12]; 16 g ai/ha) | Plant response rating, Kochia ([12]; 31 g ai/ha, scale 0 to 100) | Plant response rating, Kochia ([12]; 62 g ai/ha, scale 0 to 100, 0 no effect, 100 complete control) | Soybean plant response rating [13, 15] | Soybean plant response rating [13, 16] | Soybean plant response rating [13, 21] | Soybean plant response rating [13, 22]
30: Ryegrass, Italian plant response rating [2, 15] | Ryegrass, Italian plant response rating [2, 22] | Goosegrass plant response rating [5, 15]
80%: pest or weed control at 62 g/ha ([11]; Bromus tectorum, pre-emergence, Preemergence, 0 to 100 scale, 0 no effect, read-out: Plant response rating, Bromegrass, Downy) | pest or weed control at 31 g/ha [14, 19]
50%: pest or weed control at 62 g/ha ([11]; Bromus tectorum, post-emergence, Postemergence, scale 0 to 100, 0 no effect, read-out: Plant response rating, Bromegrass, Downy) | pest or weed control at 31 g/ha ([11]; Bromus tectorum, pre-emergence, Preemergence, scale 0 to 100 (0 no effect, 100 complete control), read-out: Plant response rating, Bromegrass, Downy)
70: Surinam Grass plant response rating [14, 16]
65: Goosegrass plant response rating [5, 22]
75%: pest or weed control at 62 g/ha ([3]; Eriochloa villosa, post-emergence, Postemergence, scale 0 to 100, 0 no effect, read-out: Plant response rating, Cupgrass, Woolly) | pest or weed control at 62 g/ha ([3]; Eriochloa villosa, pre-emergence, Preemergence, 0 to 100 scale, 0 no effect, read-out: Plant response rating, Cupgrass, Woolly) | pest or weed control at 62 g/ha [5, 18] | pest or weed control at 31 g/ha [14, 17]
85%: pest or weed control at 62 g/ha [14, 18]
60: Surinam Grass plant response rating [14, 15]
45: Surinam Grass plant response rating [14, 21]
65%: pest or weed control at 16 g/ha ([3]; Eriochloa villosa, post-emergence, Postemergence, 16 g ai/ha, scale 0 to 100, read-out: Plant response rating, Cupgrass, Woolly) | pest or weed control at 31 g/ha ([3]; Eriochloa villosa, post-emergence, Postemergence, scale 0 to 100, read-out: Plant response rating, Cupgrass, Woolly) | pest or weed control at 31 g/ha ([3]; Eriochloa villosa, pre-emergence, Preemergence, scale 0 to 100 (0 no effect, 100 complete control), read-out: Plant response rating, Cupgrass, Woolly)
98%: pest or weed control at 62 g/ha [2, 18] | pest or weed control at 31 g/ha [2, 19] | pest or weed control at 62 g/ha [2, 20] | pest or weed control at 62 g/ha [5, 20] | pest or weed control at 62 g/ha [14, 20]
90%: pest or weed control at 31 g/ha [5, 19]
10%: pest or weed control at 16 g/ha ([11]; Bromus tectorum, post-emergence, Postemergence, 16 g ai/ha, scale 0 to 100, read-out: Plant response rating, Bromegrass, Downy)
55%: pest or weed control at 62 g/ha ([9]; Digitaria sanguinalis, pre-emergence, Preemergence, 0 to 100 scale, 0 no effect, read-out: Plant response rating, Crabgrass, Large)
60%: pest or weed control at 31 g/ha [5, 17] | pest or weed control at 62 g/ha ([9]; Digitaria sanguinalis, post-emergence, Postemergence, scale 0 to 100, 0 no effect, read-out: Plant response rating, Crabgrass, Large)
30%: pest or weed control at 31 g/ha ([9]; Digitaria sanguinalis, post-emergence, Postemergence, scale 0 to 100, read-out: Plant response rating, Crabgrass, Large) | pest or weed control at 31 g/ha ([11]; Bromus tectorum, post-emergence, Postemergence, scale 0 to 100, read-out: Plant response rating, Bromegrass, Downy)
95%: pest or weed control at 31 g/ha [2, 17]
25%: pest or weed control at 31 g/ha ([9]; Digitaria sanguinalis, pre-emergence, Preemergence, scale 0 to 100 (0 no effect, 100 complete control), read-out: Plant response rating, Crabgrass, Large)

Reference: patent US20100267561A1, “HERBICIDAL PYRIDAZINONE DERIVATIVES” (priority 2007, published 2010)
